Experimental data from publication PMC8596838, “Xylose‐Configured Cyclophellitols as Selective Inhibitors for Glucocerebrosidase” (Chembiochem, 2021).

Key:
GBA3 = molecular target: T1, GBA3 (Homo sapiens, UniProt Q9H227); assay: Competitive ABPP (cABPP) with ABP 10 in HEK293T cell lysates, GBA3; format: biochemical; conditions: cell lysate, 30 min incubation
T1 construct: expressed in transfected cells; host or cells: HEK293T (GBA/GBA2 KO background for the fluorogenic assay; endogenous-GBA background with GBA2 and GBA3 overexpressed for ABPP and intact-cell assays)
T1 sequence (Q9H227 1-469): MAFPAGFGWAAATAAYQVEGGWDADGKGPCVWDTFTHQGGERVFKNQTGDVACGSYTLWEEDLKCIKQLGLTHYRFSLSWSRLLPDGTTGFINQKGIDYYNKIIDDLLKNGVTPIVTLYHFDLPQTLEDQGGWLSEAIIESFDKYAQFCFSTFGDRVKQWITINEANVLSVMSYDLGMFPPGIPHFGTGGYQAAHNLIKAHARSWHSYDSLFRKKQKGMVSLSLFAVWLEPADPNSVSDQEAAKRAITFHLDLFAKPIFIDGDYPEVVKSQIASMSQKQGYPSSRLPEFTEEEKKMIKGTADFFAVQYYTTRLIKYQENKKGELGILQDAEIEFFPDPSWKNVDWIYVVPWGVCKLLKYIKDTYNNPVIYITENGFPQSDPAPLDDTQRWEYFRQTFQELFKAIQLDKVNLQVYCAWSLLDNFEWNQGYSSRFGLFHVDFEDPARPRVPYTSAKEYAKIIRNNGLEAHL
Procedure: (§1) In the first instance, the inhibitory potency of 1 and 2 for GBA, GBA2, and GBA3 was assessed by competitive activity‐based protein profiling (cABPP). For this, we first generated HEK293T cells that contain endogenous GBA and overexpress human GBA2 and GBA3.
(§2) Figure 3 Selectivity of compounds visualized by competitive ABPP labeling of β‐D‐glucosidase. Lysates of HEK293T cells expressing human GBA, GBA2 and GBA3 were incubated with compounds 1–5 at indicated concentrations for 30 min, following by cABPP with ABP 10.
(§3) ABP labeling procedure: Glycosidases were labeled with excess fluorescent ABPs at optimum conditions. ABP labeling was performed at 37 °C for 30 min for all materials (if not otherwise stated), in a total sample volume of 20–40 μL and 0.5–1 % DMSO concentration. GBA was labeled with 200 nM ABP 9 (pH 5.2, 0.1 % (v/v) Triton‐100, 0.2 % (w/v) sodium taurocholate), or labeled together with GBA2 using 200 nM β‐D‐glucose‐configured aziridine ABP 10 at pH 5.8, or labeling together with GBA2 and GBA3 using 200 nM β‐D‐glucose‐configured aziridine ABP 10 at pH 6.0. After ABP incubation, proteins were denatured by boiling the samples with 5× Laemmli buffer (50 % (v/v) 1 M Tris‐HCl, pH 6.8, 50 % (v/v) 100 % glycerol, 10 % (w/v) DTT, 10 % (w/v) SDS, 0.01 % (w/v) bromophenol blue) for 5 min at 98 °C, and separated by electrophoresis on 10 % (w/v) SDS‐PAGE gels running continuously at 90 V. Wet slab‐gels were scanned on fluorescence using the Typhoon FLA 9500 (GE Healthcare) at λEX 473 nm and λEM≥510 nm for green fluorescent ABP 8; and at λEX 635 nm and λEM≥665 nm for ABP 6, 9 and 10. ABP‐emitted fluorescence was quantified using ImageQuant software (GE Healthcare, Chicago, IL, USA) and curve‐fitted using Prism 8.0 (GraphPad Software). After fluorescence scanning, SDS‐PAGE gels were stained for total protein with Coomassie G250 and scanned on a ChemiDoc MP imager (Bio‐Rad, Hercules, CA, USA).[25]

GBA [1] = molecular target: T2, GBA (Homo sapiens, UniProt P04062); assay: Competitive ABPP (cABPP) with ABP 10 in HEK293T cell lysates, GBA; format: biochemical; conditions: cell lysate, 30 min incubation
T2 construct: HEK293T cells that contain endogenous GBA; endogenous in cells; host or cells: HEK293T (ATCC CRL-3216) overexpressing GBA2 and GBA3
T2 sequence (P04062 40-536): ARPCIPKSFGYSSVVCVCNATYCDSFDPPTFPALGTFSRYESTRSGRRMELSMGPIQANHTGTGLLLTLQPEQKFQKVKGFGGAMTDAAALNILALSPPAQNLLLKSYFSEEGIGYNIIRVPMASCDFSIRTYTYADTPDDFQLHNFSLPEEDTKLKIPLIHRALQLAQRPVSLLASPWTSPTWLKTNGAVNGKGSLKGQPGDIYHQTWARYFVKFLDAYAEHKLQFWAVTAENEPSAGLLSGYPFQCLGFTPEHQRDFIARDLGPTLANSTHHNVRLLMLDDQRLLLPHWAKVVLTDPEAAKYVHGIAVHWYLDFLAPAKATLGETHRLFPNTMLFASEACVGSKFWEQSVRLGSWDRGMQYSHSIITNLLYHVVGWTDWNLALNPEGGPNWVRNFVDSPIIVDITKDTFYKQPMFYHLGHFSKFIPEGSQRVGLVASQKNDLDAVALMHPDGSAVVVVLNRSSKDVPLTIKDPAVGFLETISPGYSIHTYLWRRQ
Procedure: as §1, §2, §3

GBA [2] = molecular target: GBA (Danio rerio, UniProt E7EZM1); assay: In vivo inhibition in zebrafish larvae, read out by cABPP with ABP 10, GBA; parameters: species or system zebrafish (Danio rerio); conditions: larvae exposed to 5 dpf, inhibitor in the medium, cABPP quantification
From the text: We further investigated the affinity of 1 and 2 towards β‐D‐glucosidases in living animals using zebrafish (Danio rerio) embryos, which express both GBA and GBA2. Following exposure for 5 days, fish larvae were sacrificed and lysed, and cABPP with ABP 10 was used to detect residual active β‐D‐glucosidase molecules in the lysates and for IC50 determination. […] Aziridine compound 2 is also selective against GBA over GBA2, albeit with a narrower selectivity window (Figure 6A–C). […]
Figure 6 In vivo inhibitory effect of β‐D‐xylo‐configured compounds on β‐glucosidases in zebrafish (Danio rerio) larvae. […] Fluorescently labeled proteins were visualized after SDS‐PAGE, only GBA and GBA2 were assessed in zebrafish larvae model. (B) Apparent IC50 values towards β‐glucosidases (GBA and GBA2) were determined by the fluorescence quantification based on cABPP results. […] (D) GlcSph levels in zebrafish larvae were determined as described in experiment section, n=2 replicates.
ABP labeling procedure: Glycosidases were labeled with excess fluorescent ABPs at optimum conditions. […] ABP‐emitted fluorescence was quantified using ImageQuant software (GE Healthcare, Chicago, IL, USA) and curve‐fitted using Prism 8.0 (GraphPad Software). After fluorescence scanning, SDS‐PAGE gels were stained for total protein with Coomassie G250 and scanned on a ChemiDoc MP imager (Bio‐Rad, Hercules, CA, USA).[25] […]

Sequence of GBA (Danio rerio, UniProt E7EZM1) (E7EZM1 entry or part of it): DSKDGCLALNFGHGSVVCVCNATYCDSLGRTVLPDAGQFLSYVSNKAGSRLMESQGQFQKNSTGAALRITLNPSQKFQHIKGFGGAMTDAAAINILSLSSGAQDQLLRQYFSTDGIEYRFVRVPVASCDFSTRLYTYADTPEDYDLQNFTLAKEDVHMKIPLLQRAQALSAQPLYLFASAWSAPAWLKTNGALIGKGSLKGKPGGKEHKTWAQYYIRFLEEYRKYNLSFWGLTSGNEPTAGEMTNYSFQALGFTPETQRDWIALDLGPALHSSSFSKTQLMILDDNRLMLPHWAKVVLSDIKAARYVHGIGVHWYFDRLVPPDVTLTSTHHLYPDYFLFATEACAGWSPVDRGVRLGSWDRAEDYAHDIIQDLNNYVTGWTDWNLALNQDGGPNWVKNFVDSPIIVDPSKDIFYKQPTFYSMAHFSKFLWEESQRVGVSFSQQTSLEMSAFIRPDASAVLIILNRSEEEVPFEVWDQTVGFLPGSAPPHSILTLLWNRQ

| SMILES | competition of ABP 10 labeling of GBA3 (GBA3) | concentration competing ABP 10 labeling of GBA (GBA [1]) | IC50 (GBA [2]) | competition of ABP 10 labeling of GBA (GBA [1]) |
| --- | --- | --- | --- | --- |
| O[C@@H]1[C@@H](O)[C@H](O)C[C@H]2O[C@@H]12 [compound 1, xylo‐cyclophellitol] | but not that of GBA2 or GBA3 | 10 to 100 µM | 3.01 µM |  |
| O[C@@H]1[C@@H](O)[C@H](O)C[C@H]2N[C@@H]12 [compound 2, β‐D‐xylo‐Cyclophellitol aziridine] |  | 1 to 10 µM | 6.99 µM |  |
| OC[C@@H]1[C@@H](O)[C@H](O)[C@@H](O)[C@@H]2O[C@H]12 [compound 3, cyclophellitol] | with less potency | 0.1 to 1 µM |  |  |
| OC[C@@H]1[C@@H](O)[C@H](O)[C@@H](O)[C@@H]2N[C@H]12 [compound 4, cyclophellitol aziridine, reference compound] | with less potency | 0.1 to 1 µM |  |  |
| [N-]=[N+]=NCCCCCCCCN1[C@H]2[C@H](O)[C@@H](O)[C@H](O)C[C@H]21 (some centres unmarked) [compound 5] | greatly enhances inhibitory potency |  |  | greatly enhances inhibitory potency |
